Holding throughout (assay): Kinase panel, residual activity
Holding throughout (assay type): biochemical
Holding throughout (conditions): read-out: Percent residual activity

One assay has as its target PKBγ(h) (Homo sapiens, UniProt Q9Y243). The method, then:
(§1) In this panel of 124 kinases, 18 of the 19 kinases identified as having an active site cysteine were inhibited to some extent by hypothemycin at a concentration of 0.2 μM and/or 2 μM.

For the next assay, the target named is NEK6(h) (Homo sapiens, UniProt Q9HC98). The procedure:
as §1

For a further assay, the target named is ErbB4(h) (Homo sapiens, UniProt Q15303). The method, then:
as §1

A further assay addresses PDK1(h) (Homo sapiens, UniProt O15530). The procedure:
as §1

The target in the next assay is BRK(h) (Homo sapiens, UniProt Q13882). The procedure: as §1
Another assay concerns the target Lck(h) (Homo sapiens, UniProt P06239). The method, then:
as §1

In a further assay the target is CDK5/p35(h) (Homo sapiens, UniProt Q00535). The procedure:
as §1

Another assay addresses CK1δ(h) (Homo sapiens, UniProt P48730). The procedure:
as §1

In another assay the target is Rsk2(h) (Homo sapiens, UniProt P51812). The method, then: as §1
Another assay addresses ROCK-I(h) (Homo sapiens, UniProt Q13464). The procedure:
as §1

Another assay concerns the target PKA(h) (Homo sapiens, UniProt P17612). The procedure:
as §1

The target of a further assay is KDR (Homo sapiens, UniProt P35968). The method, then:
as §1

The target in the next assay is IKKα(h) (Homo sapiens, UniProt O15111). The procedure: as §1
The next assay concerns the target GSK3β(h) (Homo sapiens, UniProt P49841). The method, then: as §1
In another assay the target is PKCζ(h) (Homo sapiens, UniProt Q05513). The method, then: as §1
In a further assay the target is PKBα(h) (Homo sapiens, UniProt P31749). The procedure: as §1
Another assay addresses IR(h) (Homo sapiens, UniProt P06213). The procedure: as §1
The next assay has as its target CDK1/cyclinB(h) (Homo sapiens, UniProt P06493). The procedure: as §1
The next assay deals with Fms(h) (Homo sapiens, UniProt P07333). The procedure: as §1
Fms(h), sequence (P07333 20-972): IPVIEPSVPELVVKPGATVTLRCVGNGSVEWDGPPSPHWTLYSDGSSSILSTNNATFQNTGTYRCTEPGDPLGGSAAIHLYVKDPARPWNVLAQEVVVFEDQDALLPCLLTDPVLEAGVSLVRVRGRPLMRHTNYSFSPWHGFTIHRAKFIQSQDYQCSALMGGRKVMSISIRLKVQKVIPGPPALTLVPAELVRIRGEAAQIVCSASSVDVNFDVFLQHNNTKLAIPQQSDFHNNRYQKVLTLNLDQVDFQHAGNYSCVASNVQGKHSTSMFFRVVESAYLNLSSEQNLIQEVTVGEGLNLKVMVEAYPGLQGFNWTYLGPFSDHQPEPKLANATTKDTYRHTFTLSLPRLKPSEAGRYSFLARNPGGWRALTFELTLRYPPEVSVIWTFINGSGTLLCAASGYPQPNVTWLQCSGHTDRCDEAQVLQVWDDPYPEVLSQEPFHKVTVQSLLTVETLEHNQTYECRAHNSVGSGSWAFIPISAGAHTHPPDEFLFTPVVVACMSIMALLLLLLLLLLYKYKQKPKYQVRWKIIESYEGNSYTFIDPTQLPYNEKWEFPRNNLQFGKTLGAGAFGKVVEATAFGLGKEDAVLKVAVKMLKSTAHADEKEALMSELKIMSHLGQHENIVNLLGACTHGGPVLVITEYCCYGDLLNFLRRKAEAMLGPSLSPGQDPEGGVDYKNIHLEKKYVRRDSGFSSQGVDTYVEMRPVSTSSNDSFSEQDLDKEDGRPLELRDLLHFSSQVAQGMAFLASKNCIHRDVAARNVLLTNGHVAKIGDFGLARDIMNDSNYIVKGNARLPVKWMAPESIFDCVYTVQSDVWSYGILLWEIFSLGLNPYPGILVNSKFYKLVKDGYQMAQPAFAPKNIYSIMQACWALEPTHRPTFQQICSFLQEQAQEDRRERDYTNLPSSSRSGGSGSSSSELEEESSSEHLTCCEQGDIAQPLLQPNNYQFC
Another assay concerns the target PKCα(h) (Homo sapiens, UniProt P17252). The procedure: as §1
Another assay deals with Fes(h) (Homo sapiens, UniProt P07332). The procedure: as §1

GSK3β(h), sequence (P49841 whole entry): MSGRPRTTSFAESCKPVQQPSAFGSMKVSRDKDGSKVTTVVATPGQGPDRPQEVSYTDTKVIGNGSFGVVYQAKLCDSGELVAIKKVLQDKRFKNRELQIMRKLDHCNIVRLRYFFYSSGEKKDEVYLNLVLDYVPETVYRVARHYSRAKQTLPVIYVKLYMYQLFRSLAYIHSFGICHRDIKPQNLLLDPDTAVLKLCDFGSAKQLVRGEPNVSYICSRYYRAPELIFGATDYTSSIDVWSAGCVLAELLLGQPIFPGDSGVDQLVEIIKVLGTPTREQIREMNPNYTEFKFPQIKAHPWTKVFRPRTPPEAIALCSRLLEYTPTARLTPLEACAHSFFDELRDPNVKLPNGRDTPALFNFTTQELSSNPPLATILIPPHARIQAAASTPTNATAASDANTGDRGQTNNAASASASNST
CK1δ(h), sequence (P48730 whole entry): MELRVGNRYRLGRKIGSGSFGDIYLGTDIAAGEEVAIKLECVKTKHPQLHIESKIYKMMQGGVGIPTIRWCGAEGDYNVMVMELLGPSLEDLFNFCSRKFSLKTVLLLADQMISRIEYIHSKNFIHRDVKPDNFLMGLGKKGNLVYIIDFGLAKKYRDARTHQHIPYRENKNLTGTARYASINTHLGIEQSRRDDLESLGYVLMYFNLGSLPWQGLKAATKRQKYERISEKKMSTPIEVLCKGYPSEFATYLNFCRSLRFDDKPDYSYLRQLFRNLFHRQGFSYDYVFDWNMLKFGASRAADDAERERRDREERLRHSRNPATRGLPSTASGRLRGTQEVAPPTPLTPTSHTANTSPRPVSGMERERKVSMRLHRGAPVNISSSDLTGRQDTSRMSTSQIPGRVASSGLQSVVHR
PDK1(h), sequence (O15530 whole entry): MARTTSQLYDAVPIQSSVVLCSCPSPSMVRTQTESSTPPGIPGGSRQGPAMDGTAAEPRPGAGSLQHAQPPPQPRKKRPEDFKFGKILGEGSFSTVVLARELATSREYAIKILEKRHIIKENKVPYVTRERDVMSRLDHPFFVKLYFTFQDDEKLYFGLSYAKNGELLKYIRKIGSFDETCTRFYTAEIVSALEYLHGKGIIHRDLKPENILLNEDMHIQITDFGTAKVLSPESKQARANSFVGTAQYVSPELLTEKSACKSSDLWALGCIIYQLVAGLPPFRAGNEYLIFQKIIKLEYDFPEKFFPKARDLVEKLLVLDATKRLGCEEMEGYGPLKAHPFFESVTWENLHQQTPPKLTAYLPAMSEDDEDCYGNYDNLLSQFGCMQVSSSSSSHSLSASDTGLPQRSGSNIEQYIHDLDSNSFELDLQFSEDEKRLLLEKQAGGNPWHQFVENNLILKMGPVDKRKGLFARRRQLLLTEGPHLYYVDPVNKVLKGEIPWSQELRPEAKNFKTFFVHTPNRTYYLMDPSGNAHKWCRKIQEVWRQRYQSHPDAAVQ
PKBγ(h), sequence (Q9Y243 whole entry): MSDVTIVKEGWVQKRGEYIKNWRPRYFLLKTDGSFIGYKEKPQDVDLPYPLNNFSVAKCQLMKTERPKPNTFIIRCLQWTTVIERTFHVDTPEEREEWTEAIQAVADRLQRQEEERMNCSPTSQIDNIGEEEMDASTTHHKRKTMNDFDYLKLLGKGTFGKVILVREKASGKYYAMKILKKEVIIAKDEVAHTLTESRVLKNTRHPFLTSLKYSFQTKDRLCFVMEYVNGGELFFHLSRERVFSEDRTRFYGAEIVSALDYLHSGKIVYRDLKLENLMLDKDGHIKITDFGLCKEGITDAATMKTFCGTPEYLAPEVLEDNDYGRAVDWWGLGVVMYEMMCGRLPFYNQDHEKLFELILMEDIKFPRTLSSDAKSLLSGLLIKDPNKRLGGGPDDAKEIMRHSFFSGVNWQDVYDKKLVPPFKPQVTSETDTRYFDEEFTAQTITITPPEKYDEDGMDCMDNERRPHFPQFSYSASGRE
ErbB4(h), sequence (Q15303 26-1308): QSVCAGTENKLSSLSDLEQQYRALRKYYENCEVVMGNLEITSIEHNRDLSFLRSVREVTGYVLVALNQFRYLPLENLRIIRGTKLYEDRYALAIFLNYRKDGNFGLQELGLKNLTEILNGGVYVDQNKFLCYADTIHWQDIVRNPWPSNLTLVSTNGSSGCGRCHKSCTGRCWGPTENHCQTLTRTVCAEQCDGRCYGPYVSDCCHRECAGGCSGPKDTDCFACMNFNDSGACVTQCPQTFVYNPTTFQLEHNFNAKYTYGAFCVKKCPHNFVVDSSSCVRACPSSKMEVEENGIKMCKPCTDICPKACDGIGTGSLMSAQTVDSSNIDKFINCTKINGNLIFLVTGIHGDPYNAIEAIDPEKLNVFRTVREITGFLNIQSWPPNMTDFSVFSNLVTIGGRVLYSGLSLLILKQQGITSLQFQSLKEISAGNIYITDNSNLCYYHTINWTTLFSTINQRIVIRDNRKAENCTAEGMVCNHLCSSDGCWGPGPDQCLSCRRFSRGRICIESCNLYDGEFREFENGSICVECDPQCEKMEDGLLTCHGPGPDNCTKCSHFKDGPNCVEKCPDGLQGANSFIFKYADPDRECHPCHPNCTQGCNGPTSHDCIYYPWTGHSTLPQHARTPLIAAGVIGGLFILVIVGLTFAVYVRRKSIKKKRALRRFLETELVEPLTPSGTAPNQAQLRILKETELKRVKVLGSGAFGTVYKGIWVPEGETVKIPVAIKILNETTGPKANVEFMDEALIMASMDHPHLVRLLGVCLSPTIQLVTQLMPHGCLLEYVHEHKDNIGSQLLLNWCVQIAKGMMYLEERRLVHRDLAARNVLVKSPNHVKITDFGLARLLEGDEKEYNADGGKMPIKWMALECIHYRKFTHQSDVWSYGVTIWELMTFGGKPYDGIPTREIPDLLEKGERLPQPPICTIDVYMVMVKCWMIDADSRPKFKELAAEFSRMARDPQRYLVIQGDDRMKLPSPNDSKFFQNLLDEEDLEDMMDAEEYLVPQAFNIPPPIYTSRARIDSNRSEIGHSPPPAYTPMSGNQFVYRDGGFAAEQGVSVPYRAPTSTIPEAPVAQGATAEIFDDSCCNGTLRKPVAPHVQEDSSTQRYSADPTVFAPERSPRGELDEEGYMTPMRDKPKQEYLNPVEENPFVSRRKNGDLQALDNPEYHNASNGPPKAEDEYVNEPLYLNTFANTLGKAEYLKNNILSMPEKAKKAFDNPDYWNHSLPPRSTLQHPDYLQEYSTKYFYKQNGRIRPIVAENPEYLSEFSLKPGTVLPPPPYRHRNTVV
Lck(h), sequence (P06239 whole entry): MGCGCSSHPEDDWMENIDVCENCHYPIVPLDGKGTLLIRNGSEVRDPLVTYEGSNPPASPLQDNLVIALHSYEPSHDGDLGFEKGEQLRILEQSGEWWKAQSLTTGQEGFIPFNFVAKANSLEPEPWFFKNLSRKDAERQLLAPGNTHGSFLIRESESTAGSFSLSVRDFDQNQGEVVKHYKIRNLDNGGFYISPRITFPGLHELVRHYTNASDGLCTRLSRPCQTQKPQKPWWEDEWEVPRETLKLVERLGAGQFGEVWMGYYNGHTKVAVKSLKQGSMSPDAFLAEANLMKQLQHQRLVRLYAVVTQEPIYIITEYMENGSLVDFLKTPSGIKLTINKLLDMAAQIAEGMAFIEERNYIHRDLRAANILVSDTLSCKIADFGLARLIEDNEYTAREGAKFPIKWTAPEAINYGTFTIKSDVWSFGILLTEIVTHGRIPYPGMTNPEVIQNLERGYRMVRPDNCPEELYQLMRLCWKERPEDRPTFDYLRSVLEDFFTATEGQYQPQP
NEK6(h), sequence (Q9HC98 whole entry): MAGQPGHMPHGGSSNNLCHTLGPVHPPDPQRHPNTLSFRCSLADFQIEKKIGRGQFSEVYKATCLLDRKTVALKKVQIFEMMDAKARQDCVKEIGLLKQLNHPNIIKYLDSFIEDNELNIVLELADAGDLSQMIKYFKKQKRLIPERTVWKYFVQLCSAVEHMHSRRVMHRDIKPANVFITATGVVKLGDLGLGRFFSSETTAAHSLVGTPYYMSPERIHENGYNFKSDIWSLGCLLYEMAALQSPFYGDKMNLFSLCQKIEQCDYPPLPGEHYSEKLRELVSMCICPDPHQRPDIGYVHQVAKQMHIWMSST

Take `COc1cc(O)c2c(c1)[C@H]1O[C@@H]1C[C@H](O)[C@H](O)C(=O)/C=C\C[C@H](C)OC2=O` [Hypothemycin, hypothemycin]: the remaining activity at 0.2 µM amounted to 102% on PKBγ(h); 104% on NEK6(h); 124% at ErbB4(h); 93% on PDK1(h); 89% at BRK(h); 98% on Lck(h). Further, the remaining activity at 0.2 µM came out at 103% on CDK5/p35(h); 105% on CK1δ(h); 91% at Rsk2(h); 121% on ROCK-I(h); 108% on PKA(h); 101% on IKKα(h). Also, the remaining activity at 0.2 µM at GSK3β(h) (0.2 μM) was determined as 90%; at PKCζ(h), 94%; at PKBα(h), 153%; at IR(h), 100%; at CDK1/cyclinB(h) it was 89%; on Fms(h) (0.2 μM), 91%. Further, the values for the remaining activity at 0.2 µM at PKCα(h) and on Fes(h) were 96% and 92%, respectively. Moreover, the remaining activity at 2 µM on KDR was 15%; on GSK3β(h) (2.0 μM), 40%; on Fms(h) (2.0 μM), 90%.
